Starred links: 1 amine or outer side, 2 acyl side, 3 side chain; linkers in the order of their positions; H or OH if unused. Positions of bridges follow the written chain, without caps; N, C: chain ends. Non-standard residues stand in square brackets, D forms with d. Residues, ends and D or L forms follow the SMILES beside them. Groups on a side chain read outwards from the residue. *: point of attachment. Trp(1-Me) = Cn1cc(C[C@H](N)C(=O)O)c2ccccc21; C16 diacid = O=C(O)CCCCCCCCCCCCCCC(=O)*; γGlu = O=C(O)[C@H](CCC(=O)[*:2])N[*:1]; AEEA = NCCOCCOCC(=O)O; Sar = CNCC(=O)O
Columns and labels:
[1] = tested on: classical complement pathway; assay: In vitro haemolysis assay (inhibition of classical complement pathway); assay type: cell-based, human; conditions: Table 3; human serum, sensitized sheep red blood cells; read-out: IC50[nM], in vitro analysis of inhibition of hemolysis
Summary of the method: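 Serially diluted compound (9 points) was preincubated 15 min at room temperature with diluted human serum, titrated per batch to give 70-90% maximal haemolysis, in Tris/casein buffer pH 7.4 with Mg2+/Ca2+. Antibody-sensitized sheep erythrocytes were then added for 30 min at 37° C, and the reaction was stopped with EDTA. Haemolysis was read at A405, with IC50 from 4PL fit.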

[2] = Solubility test at 10 mg/mL (visual inspection and light scattering); assay type: physicochemical; conditions: for Solubility, Condition 1 Acetate pH 4: 10 mg/mL compound in 100 mM acetate pH 4; for Solubility, Condition 2 Acetate pH 5: 10 mg/mL compound in 100 mM acetate pH 5; for Solubility, Condition 3 Phosphate pH 6: 10 mg/mL compound in 100 mM phosphate pH 6; for Solubility, Condition 4 Phosphate pH 7: 10 mg/mL compound in 100 mM phosphate pH 7; for Solubility, Condition 5 Phosphate pH 7.5: 10 mg/mL compound in 100 mM phosphate pH 7.5

| SMILES | IC50 [1] | Solubility, Condition 1 Acetate pH 4 [2] | Solubility, Condition 2 Acetate pH 5 [2] | Solubility, Condition 3 Phosphate pH 6 [2] | Solubility, Condition 4 Phosphate pH 7 [2] | Solubility, Condition 5 Phosphate pH 7.5 [2] |
| --- | --- | --- | --- | --- | --- | --- |
| CC[C@H](C)[C@@H]1NC(=O)[C@@H](NC(=O)[C@@H](NC(=O)[C@H](CCC(=O)O)NC(=O)[C@H](CO)NC(=O)[C@H](CCC(=O)O)NC(C)=O)[C@@H](C)CC)CSSC[C@@H](C(=O)N[C@@H](CCC(=O)O)C(=O)NCC(=O)N[C@@H](CCC(=O)O)C(N)=O)NC(=O)[C@H](CCCNC(=N)N)NC(=O)[C@H](Cc2c[nH]cn2)NC(=O)[C@H](CCC(=O)O)NC(=O)CNC(=O)[C@H](Cc2c[nH]c3ccccc23)NC(=O)[C@H](CC(=O)O)NC(=O)[C@H](CCC(N)=O)NC(=O)[C@H](Cc2c[nH]c3ccccc23)NC1=O [Compound 36] (Ac-ESEICIWQDWGEHRCEGE-NH2; disulfide 5-15) | < 250 nM | − (denotes lack of solubility at the given condition, as UV absorbance at 340 nm exceeds 0.1 AU and/or it is visibly turbid or contains particles.) | − (denotes lack of solubility at the given condition, as UV absorbance at 340 nm exceeds 0.1 AU and/or it is visibly turbid or contains particles.) | − (denotes lack of solubility at the given condition, as UV absorbance at 340 nm exceeds 0.1 AU and/or it is visibly turbid or contains particles.) | + (denotes solubility at the given condition, as determined by UV absorbance being less than 0.1 AU at 340 nm and the sample being clear when manually inspected.) | + (denotes solubility at the given condition, as determined by UV absorbance being less than 0.1 AU at 340 nm and the sample being clear when manually inspected.) |
| CC[C@H](C)[C@@H]1NC(=O)[C@@H](NC(=O)[C@H](Cc2ccccc2)NC(=O)[C@H](CCC(=O)O)NC(=O)[C@H](CO)NC(C)=O)CSSC[C@@H](C(=O)N(C)CC(=O)N[C@@H](CCC(=O)O)C(=O)N[C@@H](C)C(N)=O)NC(=O)[C@H](CCCNC(=N)N)NC(=O)[C@H](Cc2c[nH]cn2)NC(=O)[C@H](CCC(=O)O)NC(=O)CN(C)C(=O)[C@H](Cc2c[nH]c3ccccc23)NC(=O)[C@H](CC(=O)O)NC(=O)[C@H](CCC(N)=O)NC(=O)[C@H](Cc2cn(C)c3ccccc23)NC1=O [Compound 76, Ac-SEFC(1)I[1-Me-Trp]QDW[SarlEHRC(1)[Sar]EA-NH2] (Ac-SEFCI[Trp(1-Me)]QDW[Sar]EHRC[Sar]EA-NH2; disulfide 4-14) | < 100 nM | − (denotes lack of solubility at the given condition, as UV absorbance at 340 nm exceeds 0.1 AU and/or it is visibly turbid or contains particles.) | − (denotes lack of solubility at the given condition, as UV absorbance at 340 nm exceeds 0.1 AU and/or it is visibly turbid or contains particles.) | + (denotes solubility at the given condition, as determined by UV absorbance being less than 0.1 AU at 340 nm and the sample being clear when manually inspected.) | + (denotes solubility at the given condition, as determined by UV absorbance being less than 0.1 AU at 340 nm and the sample being clear when manually inspected.) | + (denotes solubility at the given condition, as determined by UV absorbance being less than 0.1 AU at 340 nm and the sample being clear when manually inspected.) |
| CC[C@H](C)[C@@H]1NC(=O)[C@@H](NC(=O)[C@H](Cc2ccccc2)NC(C)=O)CSSC[C@@H](C(=O)N[C@H](C(=O)NCC(=O)N[C@@H](C)C(=O)N[C@@H](CCC(=O)O)C(=O)N[C@@H](CO)C(=O)N[C@@H](CCCCNC(=O)COCCOCCNC(=O)COCCOCCNC(=O)CC[C@H](NC(=O)CCCCCCCCCCCCCCC(=O)O)C(=O)O)C(N)=O)[C@@H](C)O)NC(=O)[C@H](CCCNC(=N)N)NC(=O)[C@H](Cc2c[nH]cn2)NC(=O)[C@H](CCC(=O)O)NC(=O)CNC(=O)[C@H](Cc2c[nH]c3ccccc23)NC(=O)[C@H](CC(=O)O)NC(=O)[C@H](CCC(N)=O)NC(=O)[C@H](Cc2cn(C)c3ccccc23)NC1=O [Compound 102] (Ac-FCI[Trp(1-Me)]QDWGEHRCTGAESK([AEEA-AEEA-γGlu-C16 diacid])-NH2; disulfide 2-12) | < 100 nM | − (denotes lack of solubility at the given condition, as UV absorbance at 340 nm exceeds 0.1 AU and/or it is visibly turbid or contains particles.) | + (denotes solubility at the given condition, as determined by UV absorbance being less than 0.1 AU at 340 nm and the sample being clear when manually inspected.) | + (denotes solubility at the given condition, as determined by UV absorbance being less than 0.1 AU at 340 nm and the sample being clear when manually inspected.) | + (denotes solubility at the given condition, as determined by UV absorbance being less than 0.1 AU at 340 nm and the sample being clear when manually inspected.) | + (denotes solubility at the given condition, as determined by UV absorbance being less than 0.1 AU at 340 nm and the sample being clear when manually inspected.) |
| CC[C@H](C)[C@H](NC(=O)[C@H](C)NC(=O)[C@H](CO)NC(=O)[C@H](CO)NC(=O)[C@H](CCC(=O)O)NC(C)=O)C(=O)N[C@H]1CSSC[C@@H](C(=O)N[C@H](C(=O)NCC(=O)N[C@@H](C)C(=O)N[C@@H](CCC(=O)O)C(=O)N[C@@H](CO)C(N)=O)[C@@H](C)O)NC(=O)[C@H](CCCNC(=N)N)NC(=O)[C@H](Cc2c[nH]cn2)NC(=O)[C@H](CCC(=O)O)NC(=O)CNC(=O)[C@H](Cc2c[nH]c3ccccc23)NC(=O)[C@H](CC(=O)O)NC(=O)[C@H](CCC(N)=O)NC(=O)[C@H](Cc2c[nH]c3ccccc23)NC(=O)[C@H]([C@@H](C)CC)NC1=O [Compound 14] (Ac-ESSAICIWQDWGEHRCTGAES-NH2; disulfide 6-16) | < 100 nM | + (denotes solubility at the given condition, as determined by UV absorbance being less than 0.1 AU at 340 nm and the sample being clear when manually inspected.) | − (denotes lack of solubility at the given condition, as UV absorbance at 340 nm exceeds 0.1 AU and/or it is visibly turbid or contains particles.) | − (denotes lack of solubility at the given condition, as UV absorbance at 340 nm exceeds 0.1 AU and/or it is visibly turbid or contains particles.) | + (denotes solubility at the given condition, as determined by UV absorbance being less than 0.1 AU at 340 nm and the sample being clear when manually inspected.) | + (denotes solubility at the given condition, as determined by UV absorbance being less than 0.1 AU at 340 nm and the sample being clear when manually inspected.) |
| CC[C@H](C)[C@@H]1NC(=O)[C@@H](NC(=O)[C@H](Cc2ccc(O)cc2)NC(=O)[C@H](C)NC(=O)[C@H](CO)NC(=O)CNC(=O)[C@H](CCC(=O)O)NC(C)=O)CSSC[C@@H](C(=O)N(C)CC(=O)N[C@@H](CCC(=O)O)C(N)=O)NC(=O)[C@H](CCCCNC(=O)COCCOCCNC(=O)COCCOCCNC(=O)CC[C@H](NC(=O)CCCCCCCCCCCCCCC(=O)O)C(=O)O)NC(=O)[C@H](Cc2c[nH]cn2)NC(=O)[C@H](CCC(=O)O)NC(=O)CNC(=O)[C@H](Cc2c[nH]c3ccccc23)NC(=O)[C@H](CC(=O)O)NC(=O)[C@H](CCC(N)=O)NC(=O)[C@H](Cc2cn(C)c3ccccc23)NC1=O [Compound 103, Ac-EGSAYC(1)I[1-Me-Trp]QDWGEH-[K([15-carboxy-pentadecanoyl][γGlu][Peg3][Peg3])]-C(1)[Sar]E-NH2] (Ac-EGSAYCI[Trp(1-Me)]QDWGEHK([AEEA-AEEA-γGlu-C16 diacid])C[Sar]E-NH2; disulfide 6-16) | < 100 nM | − (denotes lack of solubility at the given condition, as UV absorbance at 340 nm exceeds 0.1 AU and/or it is visibly turbid or contains particles.) | + (denotes solubility at the given condition, as determined by UV absorbance being less than 0.1 AU at 340 nm and the sample being clear when manually inspected.) | + (denotes solubility at the given condition, as determined by UV absorbance being less than 0.1 AU at 340 nm and the sample being clear when manually inspected.) | + (denotes solubility at the given condition, as determined by UV absorbance being less than 0.1 AU at 340 nm and the sample being clear when manually inspected.) | + (denotes solubility at the given condition, as determined by UV absorbance being less than 0.1 AU at 340 nm and the sample being clear when manually inspected.) |
| CC[C@H](C)[C@@H]1NC(=O)[C@@H](NC(=O)[C@@H](NC(=O)[C@H](CCC(=O)O)NC(=O)[C@H](CO)NC(=O)[C@H](CCC(=O)O)NC(C)=O)[C@@H](C)CC)CSSC[C@@H](C(=O)N[C@H](C(N)=O)[C@@H](C)O)NC(=O)[C@H](CCCNC(=N)N)NC(=O)[C@H](Cc2c[nH]cn2)NC(=O)[C@H](CCC(=O)O)NC(=O)CNC(=O)[C@H](Cc2c[nH]c3ccccc23)NC(=O)[C@H](CC(=O)O)NC(=O)[C@H](CCC(N)=O)NC(=O)[C@H](Cc2c[nH]c3ccccc23)NC1=O [Compound 31] (Ac-ESEICIWQDWGEHRCT-NH2; disulfide 5-15) | < 100 nM | + (denotes solubility at the given condition, as determined by UV absorbance being less than 0.1 AU at 340 nm and the sample being clear when manually inspected.) | + (denotes solubility at the given condition, as determined by UV absorbance being less than 0.1 AU at 340 nm and the sample being clear when manually inspected.) | + (denotes solubility at the given condition, as determined by UV absorbance being less than 0.1 AU at 340 nm and the sample being clear when manually inspected.) | + (denotes solubility at the given condition, as determined by UV absorbance being less than 0.1 AU at 340 nm and the sample being clear when manually inspected.) | + (denotes solubility at the given condition, as determined by UV absorbance being less than 0.1 AU at 340 nm and the sample being clear when manually inspected.) |

From patent publication US20220306695A1, “COMPSTATIN ANALOGUES AND THEIR MEDICAL USES” (priority 2019, published 2022)
